Consider 28 molecules from BindingDB's records for doi:10.1016/j.bmc.2005.11.005 (Wyeth Research, 2006).

One test has as its target T1, Tyrosine-protein phosphatase non-receptor type 1 [1-298] (Homo sapiens, UniProt P18031).
T1 construct: 1-298
T1 sequence (P18031 whole entry): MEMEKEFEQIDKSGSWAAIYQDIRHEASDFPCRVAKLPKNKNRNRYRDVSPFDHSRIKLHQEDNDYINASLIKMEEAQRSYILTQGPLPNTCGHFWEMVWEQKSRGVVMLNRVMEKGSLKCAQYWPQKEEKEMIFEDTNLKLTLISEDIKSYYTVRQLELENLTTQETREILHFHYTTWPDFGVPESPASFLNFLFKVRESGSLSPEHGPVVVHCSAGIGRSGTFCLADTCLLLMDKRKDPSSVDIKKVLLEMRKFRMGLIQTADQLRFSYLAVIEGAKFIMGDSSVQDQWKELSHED
The test is described as follows: Enzymatic Assay. To be noted: 25 °C. The method, then:
(§1) The enzymatic assay was carried out at room temperature in 96-well plates. […] All the assays were carried out in duplicate or triplicate and the average results are presented. Ki is derived from IC50 based on competitive inhibition Ki = IC50 x Km/ (Km + [substrate]).
Broadly, the Ki is a dissociation constant, usually derived from enzyme kinetics or from competition with a known ligand. A low value points to a stronger hold on the target. For `O=C(O)COc1c(C(=O)O)sc2c(Cl)cccc12` [3-(carboxymethoxy)-7-chloro-1-benzothiophene-2-carboxylic acid], affinity was put at a Ki of 119 µM.

As to `Cc1cccc2c(OCC(=O)O)c(C(=O)O)sc12` [3-(carboxymethoxy)-7-methyl-1-benzothiophene-2-carboxylic acid], the affinity, expressed as Ki, was 37 µM.

Molecule `O=C(O)COc1c(C(=O)O)sc2c1sc1ccccc12` [5-(carboxymethoxy)-3,7-dithiatricyclo[6.4.0.0^{2,6}]dodeca-1(8),2(6),4,9,11-pentaene-4-carboxylic acid] gave a Ki of 9.2 µM.

In turn, `O=C(O)COc1c(C(=O)O)sc2c1cnc1ccccc12` [5-(carboxymethoxy)-3-thia-8-azatricyclo[7.4.0.0^{2,6}]trideca-1(9),2(6),4,7,10,12-hexaene-4-carboxylic acid] gave a Ki of over 500 µM.

On to `O=C(O)COc1c(C(=O)O)sc2c1ccc1ccccc12` [5-(carboxymethoxy)-3-thiatricyclo[7.4.0.0^{2,6}]trideca-1(9),2(6),4,7,10,12-hexaene-4-carboxylic acid], for which affinity was put at a Ki of 11 µM.

With `O=C(O)COc1c(C(=O)O)sc2c1sc1c(NC3CCCCC3)cccc12` [5-(carboxymethoxy)-9-(cyclohexylamino)-3,7-dithiatricyclo[6.4.0.0^{2,6}]dodeca-1(8),2(6),4,9,11-pentaene-4-carboxylic acid], the affinity, expressed as Ki, was 1.7 µM.

`O=C(O)COc1c(C(=O)O)sc2c1sc1c(NCC3CCCCC3)cccc12` [5-(carboxymethoxy)-9-[(cyclohexylmethyl)amino]-3,7-dithiatricyclo[6.4.0.0^{2,6}]dodeca-1(8),2(6),4,9,11-pentaene-4-carboxylic acid]: the affinity, expressed as Ki, was 0.92 µM.

As for `O=C(O)COc1c(C(=O)O)sc2c1sc1c(Cl)cccc12` [5-(carboxymethoxy)-9-chloro-3,7-dithiatricyclo[6.4.0.0^{2,6}]dodeca-1(8),2(6),4,9,11-pentaene-4-carboxylic acid], the affinity, expressed as Ki, was 10 µM.

`O=C(O)COc1c(C(=O)O)sc2c1sc1cc(NC3CCCCC3)ccc12` [5-(carboxymethoxy)-10-(cyclohexylamino)-3,7-dithiatricyclo[6.4.0.0^{2,6}]dodeca-1(8),2(6),4,9,11-pentaene-4-carboxylic acid] registered a Ki of 0.74 µM.

Turning to `O=C(O)COc1c(C(=O)O)sc2c1sc1cc(NC3CCOCC3)ccc12` [5-(carboxymethoxy)-10-(oxan-4-ylamino)-3,7-dithiatricyclo[6.4.0.0^{2,6}]dodeca-1(8),2(6),4,9,11-pentaene-4-carboxylic acid], the Ki is 2.4 µM.

Consider `O=C(O)COc1c(C(=O)O)sc2c1sc1cc(NCC3CCCCC3)ccc12` [5-(carboxymethoxy)-10-[(cyclohexylmethyl)amino]-3,7-dithiatricyclo[6.4.0.0^{2,6}]dodeca-1(8),2(6),4,9,11-pentaene-4-carboxylic acid], for which the inhibition constant Ki is 0.68 µM.

Consider `O=C(O)COc1c(C(=O)O)sc2c1sc1cc(Cl)ccc12` [5-(carboxymethoxy)-10-chloro-3,7-dithiatricyclo[6.4.0.0^{2,6}]dodeca-1(8),2(6),4,9,11-pentaene-4-carboxylic acid], for which the inhibitory constant (Ki) stood at 3.5 µM.

`CCS(=O)(=O)N1CCC(Nc2ccc3c(c2)sc2c(OCC(=O)O)c(C(=O)O)sc23)CC1` [5-(carboxymethoxy)-10-{[1-(ethanesulfonyl)piperidin-4-yl]amino}-3,7-dithiatricyclo[6.4.0.0^{2,6}]dodeca-1(8),2(6),4,9,11-pentaene-4-carboxylic acid] yielded an inhibitory constant (Ki) of 1.6 µM.

Still in this test, the particulars now being: pH 7; 22 °C.
`CC(Oc1c(C(=O)O)sc2cc(Cl)ccc12)C(=O)O` (centres undefined) [3-(1-carboxyethoxy)-6-chloro-1-benzothiophene-2-carboxylic acid]: the inhibitory constant (Ki) is over 2500 µM.

Take `O=C(O)COc1c(C(=O)O)sc2ccccc12` [3-(carboxymethoxy)-1-benzothiophene-2-carboxylic acid]: the Ki was found to be 160 µM.

Regarding `O=C(O)COc1c(C(=O)O)sc2cc(-c3ccc(O)cc3)ccc12` [3-(carboxymethoxy)-6-(4-hydroxyphenyl)-1-benzothiophene-2-carboxylic acid], affinity was put at a Ki of 26 µM.

For the molecule `O=C(O)COc1c(C(=O)O)sc2cc(-c3cccs3)ccc12` [3-(carboxymethoxy)-6-(thiophen-2-yl)-1-benzothiophene-2-carboxylic acid], affinity was put at a Ki of 30 µM.

The molecule `O=C(O)COc1c(C(=O)O)sc2cc(C(=O)Nc3ccn(-c4ccccc4)n3)ccc12` [3-(carboxymethoxy)-6-[(1-phenyl-1H-pyrazol-3-yl)carbamoyl]-1-benzothiophene-2-carboxylic acid] gave a Ki of 20 µM.

Take `O=C(O)COc1c(C(=O)O)sc2cc(Cl)ccc12` [3-(carboxymethoxy)-6-chloro-1-benzothiophene-2-carboxylic acid]: the inhibitory constant (Ki) worked out at 61 µM.

Turning to `Cc1cc2sc(C(=O)O)c(OCC(=O)O)c2cn1` [3-(carboxymethoxy)-6-methylthieno[3,2-c]pyridine-2-carboxylic acid], the Ki is over 2500 µM.

`O=C(O)COc1c(C(=O)O)sc2cc(-c3ccccc3)ccc12` [3-(carboxymethoxy)-6-phenyl-1-benzothiophene-2-carboxylic acid] had a Ki of 128 µM.

In turn, `O=C(O)COc1c(C(=O)O)oc2ncccc12` [3-(carboxymethoxy)furo[2,3-b]pyridine-2-carboxylic acid] displayed a Ki of over 2500 µM.

As for `O=C(O)COc1cc2ccccc2cc1C(=O)O` [3-(carboxymethoxy)naphthalene-2-carboxylic acid], the Ki worked out at 860 µM.

Take `O=C(O)COc1c(C(=O)O)sc2cccnc12` [3-(carboxymethoxy)thieno[3,2-b]pyridine-2-carboxylic acid]: the Ki was found to be 77 µM.

Molecule `O=C(O)COc1c(C(=O)O)sc2ccsc12` [3-(carboxymethoxy)thieno[3,2-b]thiophene-2-carboxylic acid] displayed a Ki of 280 µM.

In the case of `O=C(O)c1sc2cc(Cl)ccc2c1OC(F)C(=O)O` (centres undefined) [3-[carboxy(fluoro)methoxy]-6-chloro-1-benzothiophene-2-carboxylic acid], the Ki was 52 µM.

Turning to `O=C(O)COc1c(C(=O)O)sc2cc(Br)ccc12` [6-bromo-3-(carboxymethoxy)-1-benzothiophene-2-carboxylic acid], the affinity, expressed as Ki, was 42 µM.

A further test deals with T2, Tyrosine-protein phosphatase non-receptor type 2 (Homo sapiens, UniProt P17706).
T2 sequence (P17706 whole entry): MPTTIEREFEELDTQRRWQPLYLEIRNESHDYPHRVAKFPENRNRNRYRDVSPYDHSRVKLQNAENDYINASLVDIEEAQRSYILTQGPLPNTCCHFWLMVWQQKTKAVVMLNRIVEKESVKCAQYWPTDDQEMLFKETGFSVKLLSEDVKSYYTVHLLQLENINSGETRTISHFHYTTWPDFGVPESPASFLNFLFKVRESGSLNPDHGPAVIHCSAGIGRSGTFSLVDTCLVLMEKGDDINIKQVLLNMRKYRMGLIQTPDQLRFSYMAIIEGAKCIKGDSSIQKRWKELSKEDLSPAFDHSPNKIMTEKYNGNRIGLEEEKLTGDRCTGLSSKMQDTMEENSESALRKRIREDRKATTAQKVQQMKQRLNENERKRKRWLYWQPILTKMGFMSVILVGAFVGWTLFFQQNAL
The test is described as follows: Enzymatic Assay. To be noted: 25 °C. The method, then:
as §1
As for `O=C(O)COc1c(C(=O)O)sc2c1sc1ccccc12` [5-(carboxymethoxy)-3,7-dithiatricyclo[6.4.0.0^{2,6}]dodeca-1(8),2(6),4,9,11-pentaene-4-carboxylic acid], affinity was put at a Ki of 4.1 µM.

Consider `O=C(O)COc1c(C(=O)O)sc2c1sc1cc(NC3CCN(S(=O)(=O)Cc4ccccc4)CC3)ccc12` [5-(carboxymethoxy)-10-{[1-(phenylmethane)sulfonylpiperidin-4-yl]amino}-3,7-dithiatricyclo[6.4.0.0^{2,6}]dodeca-1(8),2(6),4,9,11-pentaene-4-carboxylic acid], for which the affinity, expressed as Ki, was 0.38 µM.
